In ChEMBL document CHEMBL4376835, “Discovery of Nonpungent Transient Receptor Potential Vanilloid 1 (TRPV1) Agonist as Strong Topical Analgesic” (J Med Chem, 2020) one finds Activity data, which are given here for one compound.

The data set in a line: Genotoxicity in Salmonella typhimurium TA100 incubated for 48 hrs in presence of rat S9 by Ames test. The conditions noted are these: salmonella enterica subsp. enterica serovar typhimurium, s9, 48 h. Type of data set: toxicity, subcellular. Background: In the Ames test, an excess of revertant colonies over the control signals mutagenicity.

Turning to `CC(C)(C)c1nc(-c2cccc(Cl)c2)c(CNC(=O)Nc2ccc(CO)c(F)c2)s1`, the Activity entry is “Non-Toxic”.
